The text below walks through data of US20250110133A1, “METHOD AND KIT FOR PREDICTING DRUG EFFICACY OF LUNG CANCER TREATMENT AND METHOD FOR TREATING LUNG CANCER” (National Health Research Institutes, priority 2023, published 2025).

“Also recorded” adds a separate entry of the source. Read-outs that look alike come from different tables or passages of the source.

For test [1], the system named is PC9 cells. Kind of test: Colony formation assay for gefitinib sensitivity. The class given is cell-based, human. As to conditions: 10-day treatment. How it is done: Data are presented as mean±standard error of mean, n=3. Differences between shLDOC1 and shCtrl at each indicated concentration are analyzed using Student's t test; * p<0.05 and ** p<0.01.
Test [2] has as its system HCC827 cells. As to conditions: read-out: half-maximal inhibitory concentration (IC50).
Experimental: (§1) The HCC827 cell line is provided by Dr. Yi-Rong Chen from the Institute of Molecular and Genomic Medicine, National Health Research Institutes, Taiwan. […] PC9 and HCC827 cells are maintained in RPMI1640 (Cytiva). […] All cells are cultured in media containing 10% FBS (Gibco), 1% penicillin (Thermo Fisher, Waltham, MA, USA), and 1% streptomycin (Thermo Fisher); the cells are incubated at 37° C. in a humidified chamber with 5% CO2. […] The cells are checked for Mycoplasma (BioSmart, Seoul, Republic of Korea) upon thawing, and throughout the experimental period they consistently tested negative for Mycoplasma.
(§2) Cells are seeded at a density of 5×10^3 per well in a 96-well plate. […] An appropriate amount of DMSO is also added to the control cells. After 72 h of treatment, the cells are incubated with a solution of MTT (3-(4,5-dimethylthiazol-2-yl)-2,5-diphenyltetrazolium bromide) (Sigma-Aldrich) for 4 h at 37° C. Subsequently, the medium is aspirated, and 100 μL DMSO is added to solubilize the formazan. Colored formazan converted from MTT using viable cells is measured at 570 nm with a microplate reader (BioRad). Experiments are performed in triplicate. IC50 values are determined using the scientific and statistical software GraphPad Prism 10.0.0.
Test [3] has as its system PC9 cells.
Experimental: (§3) Cells were seeded in 96-well cell culture plates and treated the next day with the indicated concentrations of indicated EGFR-TKI. After 3 days, cell numbers were determined with MTT assay.
(§4) All cells are cultured in media containing 10% FBS (Gibco), 1% penicillin (Thermo Fisher, Waltham, MA, USA), and 1% streptomycin (Thermo Fisher); the cells are incubated at 37° C. in a humidified chamber with 5% CO2.
as §2
The test system of test [4] is PC9 cells. The experiment in a line: cells. As to conditions: Homo sapiens, PC-9, 72 h, read-out: half-maximal inhibitory concentration (IC50).
Experimental: as §3, §4, §2
Test [5] has as its system HCC827 cells. The experiment in a line: cells. As to conditions: Homo sapiens, HCC827, 72 h, read-out: half-maximal inhibitory concentration (IC50).
Experimental: as §1, §2

Take `COc1cc2ncnc(Nc3ccc(F)c(Cl)c3)c2cc1OCCCN1CCOCC1` [gefitinib]: the “colony formation under drug treatment” value is “increased the number of cell colonies; also recorded: survive and form colonies” in test [1] (LDOC1-depleted (shLDOC1) PC9 cells); “no colonies” in test [1] (PC9-shCtrl cells).

Consider `C=CC(=O)Nc1cc(Nc2nccc(-c3cn(C)c4ccccc34)n2)c(OC)cc1N(C)CCN(C)C` [osimertinib], for which the results for the IC50 in test [2], in test [4] and in test [5] were 2300 nM, 900 nM and 1800 nM, respectively. Also, the “IC50 / inhibitory effect in shLDOC1 cells compared with shCtrl cells” value in test [3] is on record as “almost the same inhibitory effect”.
